# Like-named read-outs stand apart in the source and are kept apart here.
# Assays:
# E. coli TK-3 = assay: Antibacterial activity (MIC, agar dilution) against E. coli TK-3*; assay type: cell-based; settings: Escherichia coli
# Procedure: (§1) According to Chemotherapy, vol. 29, No. 1, pp. 76-79 (1981), bacterium was cultured in peptone broth manufactured by Eiken Kagaku K.K. at 37° C. for 20 hours to prepare a bacterial solution of 10^8 cells/ml, and one loopful of the bacterial solution was inoculated into Heart Infusion agar medium (manufactured by Eiken Kagaku K.K.) containing a drug, cultured at 37° C. for 20 hours, after which growth of bacterium was observed. The minimum concentration at which the growth of bacterium was prevented was indicated as MIC (μg/ml).
# (§2) *means that β-lactamaseproducing bacteria.
# S. marcescens W-8 = assay: Antibacterial activity (MIC, agar dilution) against S. marcescens W-8*; assay type: cell-based; settings: Serratia marcescens
# Procedure: as §1, §2
# [1] = W8, S. marcescens W-8* (β-lactamase-producing bacteria), Heart Infusion agar, 37° C., 20 hours, one loopful of 10^8 cells/ml, read-out: MIC
# [2] = TK3, E. coli TK-3* (β-lactamase-producing bacteria), Heart Infusion agar, 37° C., 20 hours, one loopful of 10^8 cells/ml, read-out: MIC
Structure (SMILES),"MIC (E. coli TK-3; TK3, 20 h)",MIC (S. marcescens W-8; [1]),MIC (E. coli TK-3; [2]),"MIC (S. marcescens W-8; W8, 20 h)"
O=C(O)C(C(=O)N[C@@H]1C(=O)N2C[C@@](C(=O)O)(N3CCN(N=C4SCCS4)C3=O)S[C@H]12)c1ccccc1 (stereo partly drawn) [compound 1],0.39 µg/mL,0.1 µg/mL,–,–
O=C(O)C(C(=O)N[C@@H]1C(=O)N2C[C@@](C(=O)O)(N3CCN(N=Cc4ccco4)C3=O)S[C@H]12)c1ccccc1 (stereo partly drawn) [compound 2],–,0.39 µg/mL,0.39 µg/mL,–
CCN1CCN(C(=O)NN2CCN([C@]3(C(=O)O)CN4C(=O)[C@@H](NC(=O)C(C(=O)O)c5ccccc5)[C@H]4S3)C2=O)C(=O)C1=O (stereo partly drawn) [compound 3],0.78 µg/mL,–,–,0.78 µg/mL
O=C(O)C(C(=O)N[C@@H]1C(=O)N2C[C@@](C(=O)O)(N3CCN(N=Cc4ccc(O)c(O)c4)C3=O)S[C@H]12)c1ccccc1 (stereo partly drawn) [compound 4],–,6.25 µg/mL,6.25 µg/mL,–
O=C(NN1CCN([C@]2(C(=O)O)CN3C(=O)[C@@H](NC(=O)C(C(=O)O)c4ccccc4)[C@H]3S2)C1=O)c1cc(=O)c(O)c[nH]1 (stereo partly drawn) [compound 5],3.13 µg/mL,–,–,3.13 µg/mL
CSC(=NN1CCN([C@]2(C(=O)O)CN3C(=O)[C@@H](NC(=O)C(C(=O)O)c4ccccc4)[C@H]3S2)C1=O)SC (stereo partly drawn) [compound 6],3.13 µg/mL,1.56 µg/mL,–,–
O=CNN1CCN([C@]2(C(=O)O)CN3C(=O)[C@@H](NC(=O)C(C(=O)O)c4ccccc4)[C@H]3S2)C1=O (stereo partly drawn) [compound 7],–,6.25 µg/mL,12.5 µg/mL,–
NC(=O)C(=O)NN1CCN([C@]2(C(=O)O)CN3C(=O)[C@@H](NC(=O)C(C(=O)O)c4ccccc4)[C@H]3S2)C1=O (stereo partly drawn) [compound 8],3.13 µg/mL,1.56 µg/mL,–,–
O=C(O)C=NN1CCN([C@]2(C(=O)O)CN3C(=O)[C@@H](NC(=O)C(C(=O)O)c4ccccc4)[C@H]3S2)C1=O (stereo partly drawn) [compound 9],–,12.5 µg/mL,25 µg/mL,–
C=CC=NN1CCN([C@]2(C(=O)O)CN3C(=O)[C@@H](NC(=O)C(C(=O)O)c4ccccc4)[C@H]3S2)C1=O (stereo partly drawn) [compound 10],–,–,0.1 µg/mL,0.05 µg/mL
O=C(O)C=CC=NN1CCN([C@]2(C(=O)O)CN3C(=O)[C@@H](NC(=O)C(C(=O)O)c4ccccc4)[C@H]3S2)C1=O (stereo partly drawn) [compound 11],–,0.1 µg/mL,0.2 µg/mL,–
O=C(O)C(C(=O)N[C@@H]1C(=O)N2C[C@@](C(=O)O)(N3CCN(N=CC=CCS(=O)(=O)O)C3=O)S[C@H]12)c1ccccc1 (stereo partly drawn) [compound 12],–,0.1 µg/mL,0.78 µg/mL,–
O=C(O)C(C(=O)N[C@@H]1C(=O)N2C[C@@](C(=O)O)(N3CCN(NC(=O)C(F)(F)F)C3=O)S[C@H]12)c1ccc(O)cc1 (stereo partly drawn) [compound 13],–,3.13 µg/mL,12.5 µg/mL,–
CCN1CCN(C(=O)NN2CCN([C@]3(C(=O)O)CN4C(=O)[C@@H](NC(=O)C(C(=O)O)c5ccc(O)cc5)[C@H]4S3)C2=O)C(=O)C1=O (stereo partly drawn) [compound 14],–,3.13 µg/mL,3.13 µg/mL,–
O=C(O)CC(=O)NN1CCN([C@]2(C(=O)O)CN3C(=O)[C@@H](NC(=O)C(C(=O)O)c4ccc(O)cc4)[C@H]3S2)C1=O (stereo partly drawn) [compound 15],–,12.5 µg/mL,12.5 µg/mL,–
O=C(O)C(C(=O)N[C@@H]1C(=O)N2C[C@@](C(=O)O)(N3CCN(NS(=O)(=O)O)C3=O)S[C@H]12)c1ccc(O)cc1 (stereo partly drawn) [compound 16],–,12.5 µg/mL,12.5 µg/mL,–
CNC(=O)NN1CCN([C@]2(C(=O)O)CN3C(=O)[C@@H](NC(=O)C(C(=O)O)c4ccc(O)cc4)[C@H]3S2)C1=O (stereo partly drawn) [compound 17],–,1.56 µg/mL,1.56 µg/mL,–
C=CC=NN1CCN([C@]2(C(=O)O)CN3C(=O)[C@@H](NC(=O)C(C(=O)O)c4ccc(O)cc4)[C@H]3S2)C1=O (stereo partly drawn) [compound 18],≤ 0.05 µg/mL,0.1 µg/mL,–,–
C#CC=NN1CCN([C@]2(C(=O)O)CN3C(=O)[C@@H](NC(=O)C(C(=O)O)c4ccc(O)cc4)[C@H]3S2)C1=O (stereo partly drawn) [compound 19],≤ 0.05 µg/mL,–,–,≤ 0.05 µg/mL
CC(=O)Oc1ccc(C(C(=O)N[C@@H]2C(=O)N3C[C@@](C(=O)O)(N4CCN(N=C5SCCS5)C4=O)S[C@H]23)S(=O)(=O)O)cc1OC(C)=O (stereo partly drawn) [compound 27],–,–,1.56 µg/mL,–
